Values joined by “and” are separate entries in the source; they are usually repeats but may differ in a detail not shown here. Equal values may be shown once. Where a name gives a salt, the structure may show the parent alone.
Assays:
[1] = Viscosity experiments: absorption and emission spectra in glycerol-ethanol mixtures; assay type: physicochemical
Method: (§1) Firstly, DMSO solutions of 4 and 7 having a concentration of 1.0×10^−3 M were prepared, respectively. The stock solution of […] was added into 10 mL glycerol-ethanol mixture, and ultrasonicated to remove bubbles. The solution stayed for 1 hour, and then absorption and emission spectra therefore were measured by using UV-visible spectrophotometer and fluorescence spectrophotometer, and fluorescence lifetime of solution with different viscosity was detected as well. UV-visible spectrophotometer, model: Hp8453; fluorescence spectrophotometer model: FP-6500; Fluorescence lifetime equipment: Horiba Jobin Yvon Fluoromax-4-p.
(§2) Glycerol-ethanol mixture was a mixture of glycerol and ethanol, Vglycerol: Vethanol were 1:9, 2:8, 3:7, 4:6, 5:5, 6:4, 7:3, 8:2 and 9:1.

[2] = UV absorption and fluorescence emission spectra in different solvents; assay type: physicochemical; conditions: for λabs1 maximum absorption wavelength / λabs2 maximum absorption wavelength / λem1 maximum emission wavelength / λem2 maximum emission wavelength: 1 μM; for Φ1 fluorescence quantum yield / Φ2 fluorescence quantum yield: reference Rhodamine B in ethanol
Method: Firstly, stock solutions of 4 and 7 in DMSO were prepared respectively. Then sample solutions of 1 μM were prepared by diluting the mother liquors with corresponding chromatography grade solvent. UV absorption and fluorescence emission spectra of the sample solutions in different solvents were measured at room temperature, the results were shown in FIGS. 1A and 1B, respectively.

[3] = Fluorescence lifetime in solutions with different viscosity; assay type: physicochemical; conditions: FIG. 5A, 1 μM
Method: as §1, §2

[4] = test system: MCF-7 cells; assay: Fluorescence imaging of stained cells under laser confocal scanning microscopy; assay type: cell-based
Method: The compounds 4 and 7 (12 μL, 5 μM) in PBS buffer were added into a 6-well plate with incubated MCF-7 cells, and then the plate was incubated for 30 minutes in a cell incubator of 37° C. and 5% CO2. The plate was rinsed with PBS for 5 min×3 times, fresh culture medium was added thereto, and the cells were observed under laser confocal scanning microscopy (Leica, TCS-SP2, Germany). Typical region was selected, the traditional Cy5 was excited at 633 nm and 7 was excited at 514 nm, the cells were observed under oil immersion lens (1000×) for three times.
(§3) MCF-7 cells and Hela cells were inoculated on a 6-well plate and cultured for 24 hours at 37° C. and 5% CO2. Then, the dye was added in a final concentration of 5 μM, and the plate was incubated at 37° C. for 30 min. The culture medium was moved off, and the plate was rinsed with PBS for two times. Fresh culture medium 1200 μL was added and the fluorescence was excited.
as §3, with “Then, H2O2 133.3 µL was added in a final concentration of 1 mM/L, and the plate was incubated at 37° C. for 2 hours. The culture medium was moved off, and the plate was rinsed with PBS for two times. Fresh culture medium 1200 μL was added and then” for “Then,”, “μM,” for “μM, and”
MCF-7 cells and Hela cells were inoculated on a 6-well plate and cultured for 24 hours at 37° C. and 5% CO2. The culture medium was moved off, and the plate was rinsed with PBS for two times. Appropriate amount of 70% ethanol was added and then the plate was incubated at 37° C. for 30 min. Ethanol for fixing was moved off, and the plate was rinsed with PBS for two times. PBS 1200 μL was added and then the dye was added in a final concentration of 5 μM, the plate was incubated at 37° C. for 30 min and the fluorescence was excited.

For `CCN1/C(=C/C=C(C=C(C#N)C#N)/C=C/C2=[N+](CC)c3ccccc3C2(C)C)C(C)(C)c2ccccc21` [compound 7, 1,5-di(1-N-ethyl-3,3-dimethyl-2,3-H— lindoline)-3-(2,2-dicyanovinyl)-1,3,5-pentatriene chloride quaternary ammonium salt cyanine dye], the “UV absorption with variation of solution viscosity” value ([1]; FIG. 4A, 1 μM) was “kept constant”, the “sensitivity of fluorescence intensity to solvent viscosity” value ([1]; glycerol-ethanol mixtures) was “quite sensitive to solvent viscosity” and the “Δλ1 Stokes Shift (λem1 − λabs1)” value ([2]; DMSO) was 47 nm. For the same compound, the “Δλ2 Stokes Shift (λem2 − λabs2)” value ([2]; DMSO) was 31 nm, the “Δλ3 Stokes Shift (λem2 − λabs1)” value ([2]; DMSO) was 148 nm and the “ε1 molar extinction coefficient” value ([2]; DMSO) was 45000 L/cm/mol. The “ε2 molar extinction coefficient” value ([2]; DMSO) was 118200 L/cm/mol, the “λabs1 maximum absorption wavelength” value ([2]; DMSO) was 522 nm and the “λabs2 maximum absorption wavelength” value ([2]; DMSO) was 639 nm. For the same compound, the “λem1 maximum emission wavelength” value ([2]; DMSO) was 569 nm, the “λem2 maximum emission wavelength” value ([2]; DMSO) was 670 nm and the “Φ1 fluorescence quantum yield” value ([2]; DMSO) was 0.0057. The “Φ2 fluorescence quantum yield” value ([2]; DMSO) was 0.0113, the “Δλ1 Stokes Shift (λem1 − λabs1)” value ([2]; acetonitrile) was 48 nm and the “Δλ2 Stokes Shift (λem2 − λabs2)” value ([2]; acetonitrile) was 25 nm. The “Δλ3 Stokes Shift (λem2 − λabs1)” value ([2]; acetonitrile) was 148 nm, the “ε1 molar extinction coefficient” value ([2]; acetonitrile) was 59400 L/cm/mol and the “ε2 molar extinction coefficient” value ([2]; acetonitrile) was 112000 L/cm/mol. For the same compound, the “λabs1 maximum absorption wavelength” value ([2]; acetonitrile) was 513 nm, the “λabs2 maximum absorption wavelength” value ([2]; acetonitrile) was 635 nm and the “λem1 maximum emission wavelength” value ([2]; acetonitrile) was 561 nm. For the same compound, the “λem2 maximum emission wavelength” value ([2]; acetonitrile) was 661 nm, the “Φ1 fluorescence quantum yield” value ([2]; acetonitrile) was 0.0017 and the “Φ2 fluorescence quantum yield” value ([2]; acetonitrile) was 0.0019. The “Δλ1 Stokes Shift (λem1 − λabs1)” value ([2]; dichloromethane) was 56 nm, the “Δλ2 Stokes Shift (λem2 − λabs2)” value ([2]; dichloromethane) was 16 nm and the “Δλ3 Stokes Shift (λem2 − λabs1)” value ([2]; dichloromethane) was 160 nm. For the same compound, the “ε1 molar extinction coefficient” value ([2]; dichloromethane) was 49700 L/cm/mol, the “ε2 molar extinction coefficient” value ([2]; dichloromethane) was 113500 L/cm/mol and the “λabs1 maximum absorption wavelength” value ([2]; dichloromethane) was 512 nm. For the same compound, the “λabs2 maximum absorption wavelength” value ([2]; dichloromethane) was 656 nm, the “λem1 maximum emission wavelength” value ([2]; dichloromethane) was 568 nm and the “λem2 maximum emission wavelength” value ([2]; dichloromethane) was 672 nm. For the same compound, the “Φ1 fluorescence quantum yield” value ([2]; dichloromethane) was 0.0016, the “Φ2 fluorescence quantum yield” value ([2]; dichloromethane) was 0.006 and the “Δλ1 Stokes Shift (λem1 − λabs1)” value ([2]; ethanol) was 56 nm. For the same compound, the “Δλ2 Stokes Shift (λem2 − λabs2)” value ([2]; ethanol) was 27 nm, the “Δλ3 Stokes Shift (λem2 − λabs1), pseudo-Stokes Shift” value ([2]; ethanol) was 158 nm and the “ε1 molar extinction coefficient” value ([2]; ethanol) was 53100 L/cm/mol. The “ε2 molar extinction coefficient” value ([2]; ethanol) was 125600 L/cm/mol, the “λabs1 maximum absorption wavelength” value ([2]; ethanol) was 510 nm and the “λabs2 maximum absorption wavelength” value ([2]; ethanol) was 641 nm. The “λem1 maximum emission wavelength” value ([2]; ethanol) was 566 nm, the “λem2 maximum emission wavelength” value ([2]; ethanol) was 668 nm and the “Φ1 fluorescence quantum yield” value ([2]; ethanol) was 0.0022. The “Φ2 fluorescence quantum yield” value ([2]; ethanol) was 0.0048, the “sensitivity to solvent polarity” value ([2]; low-viscosity solvents of different polarity) was “insensitive to solvent polarity” and the “Δλ1 Stokes Shift (λem1 − λabs1)” value ([2]; methanol) was 59 nm. The “Δλ2 Stokes Shift (λem2 − λabs2)” value ([2]; methanol) was 25 nm, the “Δλ3 Stokes Shift (λem2 − λabs1)” value ([2]; methanol) was 156 nm and the “ε1 molar extinction coefficient” value ([2]; methanol) was 49000 L/cm/mol. For the same compound, the “ε2 molar extinction coefficient” value ([2]; methanol) was 122000 L/cm/mol, the “λabs1 maximum absorption wavelength” value ([2]; methanol) was 509 nm and the “λabs2 maximum absorption wavelength” value ([2]; methanol) was 636 nm. For the same compound, the “λem1 maximum emission wavelength” value ([2]; methanol) was 568 nm, the “λem2 maximum emission wavelength” value ([2]; methanol) was 665 nm and the “Φ1 fluorescence quantum yield” value ([2]; methanol) was 0.0022. For the same compound, the “Φ2 fluorescence quantum yield” value ([2]; methanol) was 0.0031, the “absorption peak, longer wavelength” value ([2]; solvent not stated) was 655 nm and the “absorption peak, shorter wavelength” value ([2]; solvent not stated) was 510 nm. For the same compound, the “emission peak, longer wavelength” value ([2]; solvent not stated) was 668 nm and 665 nm, the “emission peak, shorter wavelength” value ([2]; solvent not stated) was 565 nm and the “Δλ1 Stokes Shift (λem1 − λabs1)” value ([2]; water) was 50 nm. The “Δλ2 Stokes Shift (λem2 − λabs2)” value ([2]; water) was 28 nm, the “Δλ3 Stokes Shift (λem2 − λabs1)” value ([2]; water) was 135 nm and the “ε1 molar extinction coefficient” value ([2]; water) was 31000 L/cm/mol. For the same compound, the “ε2 molar extinction coefficient” value ([2]; water) was 52400 L/cm/mol, the “λabs1 maximum absorption wavelength” value ([2]; water) was 520 nm and the “λabs2 maximum absorption wavelength” value ([2]; water) was 627 nm. The “λem1 maximum emission wavelength” value ([2]; water) was 570 nm, the “λem2 maximum emission wavelength” value ([2]; water) was 655 nm and the “Φ1 fluorescence quantum yield” value ([2]; water) was 0.0006. The “Φ2 fluorescence quantum yield” value ([2]; water) was 0.0028, the “fluorescence lifetime at 665 nm with increase of solution viscosity” value [3] was “obviously elongated” and the “ratio value of fluorescence (red 665 / green 565 nm channel)” value ([4]; MCF-7 cells stood 4 hours at room temperature after incubation (dying)) was “ratio value of the probe was between (1) and (2)”. The “ratio value of fluorescence (red 665 / green 565 nm channel)” value ([4]; MCF-7 cells treated with hydrogen peroxide (1 mM), apoptosis induced) was “ratio value was increased” and the “ratio value of fluorescence (red 665 / green 565 nm channel)” value ([4]; normal live MCF-7 cells, 5 μM, 30 minutes) was “ratio value was small”.
